Assays:
[1] = target: Cy3B*/Cy7*-labelled β2Δ6-N148C/L266C with Gs(GDP) (Homo sapiens, UniProt P07550, C265A/C327S/C341L/C378A/C406A/C77V/L266C/N148C); type: biochemical; details: transition rate from high- to low-FRET states; saturating ligand, 30 μM GDP, Gs titration
[2] = target: β2AR-Gs complex (Homo sapiens, UniProt P07550, C265A/C327S/C341L/C378A/C406A/C77V/L266C/N148C); type: biochemical; details: normalized to adrenaline
[3] = target: labelled β2AR and biotinylated Gs (Homo sapiens, UniProt P07550, C265A/C327S/C341L/C378A/C406A/C77V/L266C/N148C); type: biochemical; details: mean ± s.e.m.
[4] = tested on: β2AR; details: compared to salbutamol, reference 27; cited from earlier work

SMILES: CNCC(O)c1ccc(O)c(O)c1 (centres unmarked) [ADR, adrenaline]
- khigh→low [1]: 0.7 s⁻¹
- η2 ([2]; apparent EC50 for GDP binding): 1.0
- η1 ([2]; product of apparent kon and khigh→low): 1.0
- Lifetime, Biotin-Gs-immobilized, +GDP ([3]; after addition of 30 μM GDP): 11.8 ± 1.2 s
- Lifetime, Biotin-Gs-immobilized, +GTP ([3]; after addition of 100 μM GTP): 6.4 ± 0.1 s
- Lifetime, M1-immobilized ([3]; biotin-M1-Fab-immobilized β2AR in the absence of Gs): 13.2 ± 3.4 min
- Lifetime, Biotin-Gs-immobilized, GNP-free ([3]; nucleotide-free state): 11.2 ± 5.1 min
- extent of [3H]GDP release [4]: greater extent of [^3H]GDP release

From patent US11834489B2 (priority 2017, dated 2023)
